From article PMC8468783, “New Flavone C-Glycosides from Scleranthus perennis and Their Anti-Collagenase Activity” (Molecules, 2021)

Tests used:
[1] = target: collagenase from Clostridium histolyticum; assay: In vitro collagenase inhibition assay (spectrophotometric, FALGPA substrate); format: biochemical; settings: mean ± SD, triplicate; 0.1 U/mL collagenase, 0.8 mM FALGPA, Tricine buffer pH 7.5, 37 °C, 20 min incubation, absorbance at 335 nm; read-out: Anti-collagenase activity IC50
Procedure: The previous spectrophotometric procedure was modified and subsequently employed to determine the anti-collagenase activity of the isolated compounds [23]. This assay was performed in 50 mM Tricine buffer (pH = 7.5; 400 mM NaCl, 10 mM CaCl2). The mixed solution included 25 µL of 0.1 U/mL collagenase from Clostridium histolyticum, 25 µL Tricine buffer, and 25 µL of various levels of the sample were incubated at 37 °C for 20 min. After incubation, 75 µL of 0.8 mM FALGPA substrate was present. Then, absorbance was measured at 335 nm wavelength. Negative control was performed using Tricine buffer instead of sample and positive control was conducted with EGCG.
The percentage inhibition for assay was calculated by: Enzyme inhibition activity (%) = [1 − […]] × 100% where C is the negative control and S is the sample.

Structure (SMILES) | IC50 [1] | melting point
COc1ccc(C(C)=O)c(O[C@@H]2O[C@H](CO[C@@H]3OC[C@](O)(CO)[C@H]3O)[C@@H](O)[C@H](O)[C@H]2O)c1 [Compound 5, apiopaenonside] | > 125 µM | 
CC(=O)Oc1ccc(-c2cc(=O)c3c(O)cc(O)c(C4OCC(O)C(O)C4OC4OC(CO)C(O)C(O)C4O)c3o2)cc1O [Compound 1, 5,7,3′-trihydroxy-4′-acetoxyflavone-8-C-β-D-xylopyranoside-2′′-O-glucoside] | 70.2 ± 1.37 µM | 188.5 to 189 °C
COc1ccc(-c2cc(=O)c3c(O)cc(O)c(C4OCC(O)C(O)C4OC4OC(CO)C(O)C(O)C4O)c3o2)cc1O [Compound 2, 5,7,3′-trihydroxy-4′-methoxyflavone-8-C-β-D-xylopyranoside-2′′-O-glucoside] | 64.9 ± 1.08 µM | 178.5 to 179.2 °C
COc1cc(-c2cc(=O)c3c(O)cc(O)c(C4OCC(O)C(O)C4OC4OC(CO)C(O)C(O)C4O)c3o2)ccc1OC(C)=O [Compound 3, 5,7-dihydroxy-3′-methoxy-4′-acetoxyflavone-8-C-β-D-xylopyranoside-2′′-O-glucoside] | 48.3 ± 1.05 µM | 
COc1cc(-c2cc(=O)c3c(O)cc(O)c(C4OCC(O)C(O)C4OC4OC(CO)C(OC(C)=O)C(O)C4O)c3o2)ccc1OC(C)=O [Compound 4, 5,7-dihydroxy-3′-methoxy-4′-acetoxyflavone-8-C-β-D-xylopyranoside-2′′-O-(4′′′-acetoxy)-glucoside] | 36.1 ± 0.78 µM | 164.6 to 166.2 °C
O=C(O[C@@H]1Cc2c(O)cc(O)cc2O[C@@H]1c1cc(O)c(O)c(O)c1)c1cc(O)c(O)c(O)c1 [EGCG, Epigallocatechin gallate, reference compound] | 34.32 ± 0.21 µM | 
